# Experimental data: US12383535B2, “Hydrogen peroxide-responsive KEAP1-NRF2 ppi inhibitor prodrug, and preparation method therefor” (CHINA PHARMACEUTICAL UNIVERSITY, priority 2019, dated 2025)
# Assays:
# [1] = Drug release rate by HPLC (H2O2 activation of prodrug); type: physicochemical
# Experimental: The target compound was dissolved in DMSO to give a 10 mM stock solution, which was then stored at −20° C. The final concentration was brought to 50 μM by adding the target compound (10 mM) to phosphate buffered saline (PBS) (10 mM, pH 7.4), and H2O2 was added. The solution was well vortexed, and then incubated at 37° C. Samples were taken at appropriate time intervals and analyzed by HPLC directly after injection, and the peak areas were recorded to calculate the percentage of the compound. The procedure was repeated three times. The following Agilent 1260 HPLC and DAD detectors were used: Agilent C18 column (4.6×150 mm, 3.5 μm); mobile phase: 70% methanol; flow rate: 0.5 mL/min. A standard curve of the compound was plotted against concentration.
# After treatment with 10 mM H2O2, the prodrug pro2 was activated with prolonged incubation time and the active parent compound 2 was completely released within 3 h (HPLC-determined conversion >98%, (B) of FIG. 1 and (C) of FIG. 1).
# [2] = pH stability in PBS buffers; type: physicochemical; details: PBS solutions, pH 4-10
# Experimental: (1) pH stability. PBS buffers with different pH values (pH 4-10) were prepared from a 0.1 M HCl solution and a 0.1 M NaOH solution. The prodrug pro2 (20 μM) was incubated in triplicate together with the PBS buffers of different pH at 37° C. After 24 h of incubation, the solutions were filtered and injected for direct sample analysis by HPLC, and the peak areas were recorded to calculate the percentage of compound.
# Stability in plasma = type: in vitro ADME
# Experimental: (2) Stability in plasma. Samples (20 μM) of the prodrug pro2 were co-incubated in triplicate with mouse plasma at 37° C. at different time periods. Methanol was added to precipitate the proteins, and the samples were vortexed and then centrifuged at 12,000 rpm for 5 min. The supernatants were analyzed by HPLC and the peak areas were recorded.
# [3] = Stability in liver microsomes (human); type: in vitro ADME
# Experimental: (§1) (3) Stability in microsomes. Isolated liver microsomes (from CD-1 male rats and human males) were used to evaluate the stability of the compound in microsomes in vitro. Ketanserin was used as a reference compound. A liver microsome solution (20 mg/mL) was added to a microcentrifuge tube containing PBS at 37° C. and the mixture was shaken for 10 min prior to assay. Then a DMSO solution (0.5 mM) containing the test compound was added. At 0 min, pre-cooled acetonitrile was added followed by an NADPH stock solution (6 mM). The plates were pre-incubated at 37° C. for 5 min. The timer started upon the addition of the NADPH stock solution (6 mM) to the plates. At 5 min, 15 min, 30 min and 45 min, pre-cooled acetonitrile was added to the wells of the respective plates to stop the reactions. After the reaction was quenched, the plates were shaken on a shaker for 10 min and then centrifuged at 5000 rpm for 15 min. The supernatant from each well was transferred to a 96-well sample plate containing ultrapure water for LC-MS/MS analysis.
# [4] = Stability in liver microsomes (rat); type: in vitro ADME
# Experimental: as §1
# [5] = system: Nrf2/ARE luciferase reporter in HepG2-ARE-C8 cells; experiment: ARE-luciferase activity assay; type: cell-based; details: no LPS (physiological conditions)
# Experimental: HepG2-ARE-C8 cells were plated in a 96-well plate at a density of 4×10^4 cells/well and incubated overnight. The cells were then incubated with different concentrations of the test compound, with DMSO as a negative control and a luciferase cell lysis agent as a blank control. After 12 h of treatment, the medium was removed and 100 μL of pre-cooled PBS was added to each well to wash the cells. PBS was then removed and 30 μL of the luciferase cell lysis agent was added. After 15 min of lysis on ice, the cells were harvested and centrifuged, and 20 μL of the supernatant was taken for luciferase activity assay according to the protocol provided by the manufacturer (Promega, Madison, WI). The luciferase activity was measured by Luminoskan Ascent (Thermo Scientific, USA). The assay was performed in triplicate and the inductivity fold was calculated by comparing with the control.
# [6] = system: Nrf2-ARE in RAW264.7 cells; experiment: ARE inductivity under LPS stimulation; type: cell-based, mouse
# [7] = system: IL-1β and IL-6 mRNA in RAW264.7 cells; experiment: Real-time quantitative PCR of IL-1β and IL-6; type: cell-based, mouse; details: 20 ng/mL LPS 8 h
# RAW264.7 cells = experiment: IL-1β, IL-6, TNF-α and NO assays in cell culture supernatant; type: cell-based, mouse
# Experimental: IL-1β (IL-1β (m) ELISA kit, EK0394, Boster), IL-18 (IL-18 (m) ELISA kit, EMC011, NeoBioscience), IL-6 (IL-6 (m) ELISA kit EK0411, Boster), TNF-α (TNF-α (m) ELISA kit, EK0527, Boster) and NO (nitrate/nitrite assay kit, S0023, Beyotime, China) were tested using commercially available kits according to the manufacturer's instructions.
# Then, several inflammatory mediators closely related to ROS, including IL-1β, IL-6, TNF-α and NO, were further evaluated.
# [8] = In vivo pharmacokinetic study; design: species or system SD rats; details: rat
# Experimental: Six male SD rats weighing about 260 g were used, with 3 rats for PO study and the other 3 rats for IV study. The test compound was dissolved in normal saline with a cosolvent to prepare a solution before the study. For the PO study, animals were administered orally (10 mg/kg). […] Blood was sampled at 0.0833, 0.25, 0.5, 1, 2, 4, 6, 8, 24 h in groups IV and PO. The blood samples were preserved on ice and then centrifuged at 2000 rpm and 4° C. for 10 min for separating plasma. The plasma samples were transferred and stored at −80° C. before analysis by LC-MS/MS.
smiles,measurement,setting,value
COc1ccc(S(=O)(=O)Nc2ccc(N(CC(=O)N3CCSC3=O)S(=O)(=O)c3ccc(OC)cc3)c3ccccc23)cc1 [pro2],time to complete release of the active parent compound 2,[1]; 10 mM H2O2,≤ 3 h
same,HPLC-determined conversion,"[1]; 10 mM H2O2, within 3 h",> 98%
same,release of the active parent compound 2,"[1]; H2O2 0.8 mM, 24 h incubation, HPLC",no less than 50%
same,hydrolytic stability in PBS,[2],hydrolytically stable
same,stability in rat plasma,Stability in plasma,very stable
same,stability in co-incubation with human liver microsomes,[3],very stable
same,stability in co-incubation with rat liver microsomes,[4],very stable
same,ARE inductivity,[5],remained almost inactive even at the highest concentration
same,EC50,"[6]; Mus musculus, RAW264.7, under LPS stimulation, read-out: EC50 of ARE inductivity",320 nM
same,inductivity of Nrf2-ARE at different concentrations of LPS,"[6]; RAW264.7 cells stimulated with LPS prior to administration, compound 200 nM",LPS concentration-dependent increase
same,mRNA transcription of IL-1β and IL-6,[7],significantly inhibit the induction by pro-inflammatory genes
same,"production of IL-1β, IL-6 and TNF-α in supernatant",RAW264.7 cells; LPS-treated RAW264.7 cell culture,significant advantages in inhibiting production
same,EC50,"RAW264.7 cells; Mus musculus, LPS-stimulated RAW264.7 cells, read-out: EC50 for reduction of extracellular NO concentration",120 nM
same,AUC0-t,[8]; I.V. 2 mg/kg,1842 ± 363 ng·h/mL
same,AUC0-∞,[8]; I.V. 2 mg/kg,1854 ± 366 ng·h/mL
same,Cl_F,[8]; I.V. 2 mg/kg,18.5 ± 3.9 mL/min/kg
same,MRT,[8]; I.V. 2 mg/kg,1.25 ± 0.30 h
same,T1/2,[8]; I.V. 2 mg/kg,4.41 ± 3.01 h
same,Vz_F,[8]; I.V. 2 mg/kg,6.44 ± 4.09 L/kg
same,AUC0-t,[8]; P.O. 10 mg/kg,6203 ± 248 ng·h/mL
same,AUC0-∞,[8]; P.O. 10 mg/kg,6315 ± 273 ng·h/mL
same,Cl_F,[8]; P.O. 10 mg/kg,26.4 ± 1.14 mL/min/kg
same,Cmax,[8]; P.O. 10 mg/kg,2753 ± 15.3 ng/mL
same,MRT,[8]; P.O. 10 mg/kg,1.82 ± 0.35 h
same,T1/2,[8]; P.O. 10 mg/kg,2.09 ± 0.93 h
same,Tmax,[8]; P.O. 10 mg/kg,0.67 ± 0.29 h
same,Vz_F,[8]; P.O. 10 mg/kg,4.79 ± 2.17 L/kg
same,bioavailability,[8]; oral,68.1%
